Reference: patent US8168221B2, “Composition 064” (AstraZeneca AB, priority 2007, dated 2012)

What was measured:
[1] = Compound (I) forced degradation study, aqueous buffer solutions protected from light; type: physicochemical; conditions: for Compound (I) formyl hydrazide, % w/w (24 hours) / Compound (I) hydrazide, % w/w (24 hours) / Compound (I), % w/w (24 hours) / Compound (I), % w/w (initial) / Compound (I) formyl hydrazide, % w/w (initial): protected from light; for Compound (I), % w/w (initial): 0.5 mg/mL
Protocol: (§1) The Compound (I), Compound (I) formyl hydrazide, and total impurities contents were determined using High Performance Liquid Chromatography HPLC. 10 μL sample was injected into a mobile phase comprising water/acetonitrile/formic acid in the ratios 900:100:2 (Eluent A)/400:600:2 (Eluent B), as defined by the gradient program in Table 1 below. Separation of impurities was performed using a column 15 cm long×4.6 mm internal diameter packed with Waters Symmetry C8 stationary phase having 3.5 μm particle size. […] “ND” in Tables 2 and 3 refers to “not determined”

[2] = Compound (I) forced degradation study, solutions exposed to light at room temperature; type: physicochemical
Protocol: as §1

COc1nc(C)cnc1NS(=O)(=O)c1cccnc1-c1ccc(-c2nnco2)cc1 [Compound (I), N-(3-methoxy-5-methylpyrazin-2-yl)-2-(4-[1,3,4-oxadiazol-2-yl]phenyl)pyridine-3-sulphonamide]
hydrolytic degradation (in words) ([1]; low and high pH): subject to hydrolytic degradation at low and high pH
Compound (I) formyl hydrazide, % w/w (24 hours) ([1]; pH 1.2, 37° C.): 32.16 % w/w
Compound (I) hydrazide, % w/w (24 hours) ([1]; pH 1.2, 37° C.): 47.34 % w/w
Compound (I), % w/w (24 hours) ([1]; pH 1.2, 37° C.): 0.89 % w/w
Compound (I), % w/w (initial) ([1]; pH 1.2, 37° C.): 96.69/ % w/w
Compound (I) formyl hydrazide, % w/w (initial) ([1]; pH 1.2, 37° C.): 1.58/ % w/w
Compound (I) formyl hydrazide, % w/w (24 hours) ([1]; pH 1.2, RT): 59.83 % w/w
Compound (I) hydrazide, % w/w (24 hours) ([1]; pH 1.2, RT): 13.87 % w/w
Compound (I), % w/w (24 hours) ([1]; pH 1.2, RT): 23.04 % w/w
Compound (I), % w/w (initial) ([1]; pH 1.2, RT): 97.57/ % w/w
Compound (I) formyl hydrazide, % w/w (initial) ([1]; pH 1.2, RT): 1.99/ % w/w
Compound (I) formyl hydrazide, % w/w (24 hours) ([1]; pH 3.0, 37° C.): 3.09 % w/w
Compound (I), % w/w (24 hours) ([1]; pH 3.0, 37° C.): 96.56 % w/w
Compound (I), % w/w (initial) ([1]; pH 3.0, 37° C.): 99.43/ % w/w
Compound (I) formyl hydrazide, % w/w (24 hours) ([1]; pH 3.0, RT): 1.66 % w/w
Compound (I) hydrazide, % w/w (24 hours) ([1]; pH 3.0, RT): <0.05 % w/w
Compound (I), % w/w (24 hours) ([1]; pH 3.0, RT): 84.70 % w/w
Compound (I), % w/w (initial) ([1]; pH 3.0, RT): 99.45/ % w/w
Compound (I) hydrazide, % w/w (24 hours) ([1]; pH 7.2, 37° C.): <0.05 % w/w
Compound (I), % w/w (24 hours) ([1]; pH 7.2, 37° C.): 99.17 % w/w
Compound (I), % w/w (initial) ([1]; pH 7.2, 37° C.): 98.73/ % w/w
Compound (I) hydrazide, % w/w (24 hours) ([1]; pH 7.2, RT): <0.05 % w/w
Compound (I), % w/w (24 hours) ([1]; pH 7.2, RT): 99.45 % w/w
Compound (I), % w/w (initial) ([1]; pH 7.2, RT): 99.14/ % w/w
Compound (I) formyl hydrazide, % w/w (24 hours) ([1]; pH 11.0, 37° C.): 4.16 % w/w
Compound (I) hydrazide, % w/w (24 hours) ([1]; pH 11.0, 37° C.): <0.05 % w/w
Compound (I), % w/w (24 hours) ([1]; pH 11.0, 37° C.): 94.50 % w/w
Compound (I), % w/w (initial) ([1]; pH 11.0, 37° C.): 99.17/ % w/w
Compound (I) formyl hydrazide, % w/w (24 hours) ([1]; pH 11.0, RT): 1.35 % w/w
Compound (I), % w/w (24 hours) ([1]; pH 11.0, RT): 94.21 % w/w
Compound (I), % w/w (initial) ([1]; pH 11.0, RT): 98.68/ % w/w
Compound (I) formyl hydrazide, % w/w (initial) ([1]; pH 11.0, RT): 0.07/ % w/w
Compound (I) formyl hydrazide, % w/w (24 hours) ([2]; pH 1.2, 24 hours): 16.35 % w/w
Compound (I) hydrazide, % w/w (24 hours) ([2]; pH 1.2, 24 hours): ND/0.32 % w/w
Compound (I), % w/w (24 hours) ([2]; pH 1.2, 24 hours): 82.33 % w/w
Compound (I) formyl hydrazide, % w/w (initial) ([2]; pH 1.2, initial): 1.39 % w/w
Compound (I), % w/w (initial) ([2]; pH 1.2, initial): 98.82 % w/w
Compound (I) formyl hydrazide, % w/w (24 hours) ([2]; pH 3.0, 24 hours): 0.30 % w/w
Compound (I), % w/w (24 hours) ([2]; pH 3.0, 24 hours): 95.76 % w/w
Compound (I) formyl hydrazide, % w/w (initial) ([2]; pH 3.0, initial): 0.05 % w/w
Compound (I), % w/w (initial) ([2]; pH 3.0, initial): 99.39 % w/w
Compound (I), % w/w (24 hours) ([2]; pH 7.2, 24 hours): 97.04 % w/w
Compound (I), % w/w (initial) ([2]; pH 7.2, initial): 98.78 % w/w
Compound (I) formyl hydrazide, % w/w (24 hours) ([2]; pH 11.0, 24 hours): 0.15 % w/w
Compound (I), % w/w (24 hours) ([2]; pH 11.0, 24 hours): 98.66 % w/w
Compound (I) formyl hydrazide, % w/w (initial) ([2]; pH 11.0, initial): < 0.05 % w/w
Compound (I), % w/w (initial) ([2]; pH 11.0, initial): 99.91 % w/w
